Assay results from patent US7482415B2, “Process for producing fluoroionomer, method for purification and concentration of the ionomer, and method of film formation” (Daikin Industries, Ltd., priority 2000, dated 2009).

Experiments:
Type in all cases: physicochemical
[1] = Solubility test of S monomer in solvents
[2] = Dissolution test (Solvent A): dissolving power of solvents for S monomer, visually evaluated; parameters: key: A: Completely dissolved; B: Partially dissolved or swelled; C: Not dissolved; settings: small amount of S monomer
Description: (§1) Each solvent shown in the following table (50 cc) was placed in an individual test tube, and a small amount of S monomer was added to test the dissolving power.
The dissolving power was visually evaluated on the following scale of three. […] A: Completely dissolved; B: Partially dissolved or swelled; C: Not dissolved.

[3] = Dissolution test (Solvent D): dissolving power of acids for S monomer, visually evaluated; parameters: key: A: Completely dissolved; B: Partially dissolved or swelled; C: Not dissolved; settings: small amount of S monomer
Description: as §1
The dissolving power was visually evaluated on the following scale of three. […] A: Completely dissolved; B: Partially dissolved or swelled; C: Not dissolved

`O=S(=O)([O-])C(F)(F)C(F)(F)OC(F)=C(F)F.[Na+]` [S monomer, CF2═CFOCF2CF2SO3Na] showed a Solubility ([1]; in Dimethoxyethane) of 2700 mM, a Solubility ([1]; in Hexafluoroisopropanol) of 30 mM and a Solubility ([1]; in Trifluoroacetic acid) of 700 mM. For the same compound, the Solubility ([1]; in sec-Butanol) was 770 mM, the Solubility ([1]; in t-Butanol) was 530 mM and the Dissolving power ([2]; solvent Acetic acid (50 cc)) was “A”. For the same compound, the Dissolving power ([2]; solvent Acetone (50 cc)) was “A”, the Dissolving power ([2]; solvent Acetonitrile (50 cc)) was “A” and the Dissolving power ([2]; solvent Benzene (50 cc)) was “C”. The Dissolving power ([2]; solvent Carbon disulfide (50 cc)) was “C”, the Dissolving power ([2]; solvent Chloroform (50 cc)) was “C” and the Dissolving power ([2]; solvent Diethyl ether (50 cc)) was “C”. The Dissolving power ([2]; solvent Dimethylformamide (50 cc)) was “A”, the Dissolving power ([2]; solvent Diphenyl ether (50 cc)) was “C” and the Dissolving power ([2]; solvent Ethanol (50 cc)) was “A”. The Dissolving power ([2]; solvent Ethyl acetate (50 cc)) was “A”, the Dissolving power ([2]; solvent Hexane (50 cc)) was “C” and the Dissolving power ([2]; solvent Isopropanol (50 cc)) was “A”. For the same compound, the Dissolving power ([2]; solvent Methanol (50 cc)) was “A”, the Dissolving power ([2]; solvent Pyridine (50 cc)) was “A” and the Dissolving power ([2]; solvent Tetrahydrofuran (50 cc)) was “A”. For the same compound, the Dissolving power ([2]; solvent Trifluoroacetic acid (50 cc)) was “A”, the Dissolving power ([3]; acid Acetic acid (50 cc)) was “A” and the Dissolving power ([3]; acid CF2═CFCF2COOH (50 cc)) was “A”. For the same compound, the Dissolving power ([3]; acid Hexafluoroisopropanol (50 cc)) was “A”, the Dissolving power ([3]; acid Hydrofluoric acid (50 cc)) was “A” and the Dissolving power ([3]; acid Trifluoroacetic acid (50 cc)) was “A”.
